# Tests used:
# C57BL/6 mice = experiment: EEG/EMG sleep recording in mice after oral administration (Test Example 3); type: in vivo, mouse; conditions: 10 mg/kg oral, administered at start of dark period, compared to vehicle (water), FIG. 3
# Method: C57BL/6 mice (male, 10 weeks old, weighing 25-28 g) were purchased from Oriental BioService Inc.
# The mice were individually housed in acrylic cages placed in a sound insulation chamber. They were given solid mouse food (food name: Labo MR Stock) in a 12-hour light and dark cycle (light period starting at 8 a.m.), with free access to food and drinking water.
# (§1) An operation to implant electrodes for measuring EEG/EMG was performed on the mice. The mice were placed in a chamber for recovery for 10 days, and recovered. Then, the mice were moved to a chamber for recording, and measurement cables were connected to the electrodes. The mice were adapted to the environment for 4 days.
# (§2) Oxypinnatanine was dissolved in water, and a dosage of 10 mg/kg was orally administered using a probe. Administration was carried out at 20:00 (starting time of a dark period). On day 1, water was solely administered as a control containing only the solvent. On day 2, oxypinnatanine was administered (n=4).
# (§3) The EEG and EMG were amplified (EEG: 0.5-30 Hz, EMG: 20-200 Hz), and then digitalized at the sampling speed of 128 Hz for recording. […] EEG data over 12 hours after administration were analyzed. Then, waking time, non-REM sleep time, and REM sleep time per hour were calculated. Further, the EEG power spectrum was analyzed, and the amplitudes of theta waves and delta waves were thereby analyzed.
# Sprague-Dawley rats = experiment: EEG/EMG sleep recording in rats after oral administration (Test Example 1); type: in vivo, rat; conditions: 100 mg/kg oral, administered at start of dark period, compared to vehicle (water), FIG. 1
# Method: Sprague-Dawley rats (male, 8 weeks old, weighing 250-280 g) were purchased from Japan SLC, Inc.
# The rats were individually housed in acrylic cages placed in a sound insulation chamber. They were given solid rat food (food name: Labo MR Stock) in a 12-hour light and dark cycle (light period starting at 7 a.m.), with free access to food and drinking water.
# as §1, with “rats (Huang Z. L. et al., J. Neurosci. 2003, 23(14), 5975-83., Okada T. et al., Biochem. Biophys. Res. Commun. 2003, 312(1), 29-34).” for “mice.”, “rats” for “mice”
# Oxypinnatanine was dissolved in water, and a dosage of 100 mg/kg was orally administered using a probe. Administration was carried out at 19:00 (starting time of a dark period). […]
# as §3, with “at a” for “at the”
# Slc:ICR mice = experiment: Locomotor assay (amount of locomotion) in mice, infrared monitor (Test Example 2); type: in vivo, mouse; conditions: 100 mg/kg oral, administered at start of dark period, compared to vehicle (water), FIG. 2
# Method: Slc:ICR mice (male, 10 weeks old, weighing 38-40 g) were purchased from Japan SLC, Inc.
# The mice were housed in groups (8 mice per group) in acrylic cages placed in a chamber for monitoring the amount of animal behavior, and were habituated for 7 days. They were given solid rat food (food name: Labo MR Stock) in a 12-hour light and dark cycle (light period starting at 7 a.m.), with free access to food and drinking water.
# as §2, with “dosage weight” for “dosage”, “100” for “10”, “19:00” for “20:00”, “(n=8).” for “(n=4).”
# An infrared monitor was used to detect infrared light emitted from the animals to count the amount of locomotion. The infrared monitor recorded continuously for 12 hours. Recording was conducted using a Biotex 16CH Act Monitor BAI2216 (Biotex). For analysis, the time-dependent change in the amount of locomotion and the total amount of locomotion in each hour were calculated.
melting point,SMILES,Total non-REM sleep time during 4 hours after administration (C57BL/6 mice),Total non-REM sleep time during 6 hours after administration (Sprague-Dawley rats),Total amount of locomotion during 6 hours after administration (Slc:ICR mice)
152 to 153 °C (dec.),"NC(CC(O)C(=O)NC1OCC=C1CO)C(=O)O (stereo not shown) (hydrate or solvate) [Oxypinnatanine, oxypinnatanine]",,,
,"NC(CC(O)C(=O)NC1OCC=C1CO)C(=O)O (stereo not shown) [Oxypinnatanine, oxypinnatanine]",effect of increasing non-REM sleep time with statistical significance,effect of increasing non-REM sleep time,statistically significant decrease in the amount of locomotion
